Data from patent US8426429B2, “2-amino-quinazoline derivatives useful as inhibitors of β-secretase (BACE)” (Jansssen Pharmaceutica N.V., priority 2004, dated 2013).
Like-named read-outs stand apart in the source and are kept apart here.

What was measured:
Assay type in all cases: biochemical
β-secretase (BACE) [1] = molecular target: T1, β-secretase (BACE) (Homo sapiens, UniProt P56817); experiment: BACE % Inhibition Assay ((Aedens)-[…]-(Dabcyl K-amide) substrate); settings: % error ±10%
T1 construct: purchased Panvera
T1 sequence (P56817 46-501): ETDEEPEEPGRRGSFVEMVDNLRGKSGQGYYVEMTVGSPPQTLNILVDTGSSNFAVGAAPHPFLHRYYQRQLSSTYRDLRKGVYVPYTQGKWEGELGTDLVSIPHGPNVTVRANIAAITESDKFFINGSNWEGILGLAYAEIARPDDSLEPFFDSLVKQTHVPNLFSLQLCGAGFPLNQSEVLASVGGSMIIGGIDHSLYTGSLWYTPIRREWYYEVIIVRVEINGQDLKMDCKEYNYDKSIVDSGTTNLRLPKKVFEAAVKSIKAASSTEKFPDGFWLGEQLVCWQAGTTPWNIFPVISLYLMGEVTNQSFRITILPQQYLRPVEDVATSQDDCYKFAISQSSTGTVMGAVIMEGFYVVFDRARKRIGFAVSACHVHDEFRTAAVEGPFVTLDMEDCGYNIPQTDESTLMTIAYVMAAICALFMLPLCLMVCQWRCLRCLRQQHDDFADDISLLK
Protocol: (§1) The substrate stock solution was prepared in DMSO as a 10 mg/mL solution. The substrate working solution was prepared by diluting the 10 mg/mL stock solution with substrate assay buffer to a final concentration of […]. The β-secretase (BACE) working solution was prepared by diluting a 0.83 mg/mL BACE stock solution with enzyme assay buffer to a final concentration of 4 μg/mL.
Test compounds were dissolved in DMSO to 10 mM.
The screening procedure for this assay was as follows: 15 μL of BACE working solution was pipetted into each well of a 96-well plate. To each well was then pipetted 2 μL of test compound at the selected concentration. Test compound and BACE were then mixed with a pipettor and incubated for 20 min at room temperature. To each well was then added 10 μL of the substrate working solution. The plates were then incubated for 1 hour at room temperature.
The procedure for the blank was as follows. 15 μL of assay buffer was pipetted into each well to be used as a blank control. To each well was then added 2 μL of vehicle and 10 μL of substrate working solution. The plates were then incubated for 1 hour at room temperature.
The procedure for the positive control was as follows: 15 μl of BACE working solution was pipetted into each well to be used as a positive control. To each well was then pipetted 2 μL of vehicle. Vehicle and BACE were then mixed with a pipettor and incubated for 20 min at room temperature. To each well was then added 10 μL of the substrate working solution. The plates were the incubated for 1 hour at room temperature.
For test compounds, % inhibition was determined at each concentration as follows: […]

β-secretase (BACE) [2] = molecular target: T1, β-secretase (BACE); experiment: BACE FS1 % Inhibition Assay; settings: for inhibition at 0.3 µM / inhibition at 1 µM / inhibition at 3 µM: read-out: % Inhibition (FS)
Method in brief: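 Percent inhibition per compound concentration was referenced to vehicle-treated enzyme and no-enzyme wells. Enzyme at a 4 μg/mL working stock plus compound was mixed for 20 min at room temperature before the FS1 substrate (300 μg/mL working stock) was added for a 1 h room-temperature reaction.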

β-secretase (BACE) [3] = molecular target: T1, β-secretase (BACE); experiment: BACE Assay-2 (FS1 substrate, IC50 and Ki); settings: procedure of Example 159, FS1 substrate
Protocol: as §1, with “The FS1-substrate” for “The substrate”
Test compounds were dissolved in DMSO at 10 mM.
The procedure for this assay was as follows: 15 μL of BACE working solution was pipetted into each well of a 96-well plate. To each well was then pipetted 2 μL of test compound at the selected concentration. Test compound and BACE were then mixed with a pipettor and incubated for 20 min at room temperature. To each well was then added 10 μL of the FS1 substrate working solution.
The procedure for the positive control was as follows:15 μL of BACE working solution was pipetted into each well to be used as a positive control. To each well was then pipetted 2 μL of vehicle. Vehicle and BACE were then mixed with a pipettor and incubated for 20 min at room temperature. To each well was then added 10 μL of the FS1 substrate working solution.
For test compounds, measured at multiple concentrations, the measured T0 and T60 values were used to calculate an IC50 value using Graphpad Software (or PIR). For test compounds, Ki inhibition was determined as follows: For each compound concentration and positive control, rate of cleavage of substrate (Vi, where i=compound concentration in μM) was determined as Δ Fluorescence/Δ time (min). Cleavage rates (Vi) were plotted as a function of inhibitor concentration in μM [I]. The Ki was then determined by fitting the following equation to the graph of [I] vs Vi Y=aVmax/(50+24*(1+X/Ki)),

Row | Structure (SMILES) | % Inhibition (β-secretase (BACE) [1]; 3 μM compound) [%] | Ki (β-secretase (BACE) [3]) [µM] | % Inhibition (β-secretase (BACE) [1]; 0.3 μM compound) [%] | % Inhibition (β-secretase (BACE) [1]; 1 μM compound) [%] | also measured
1 | CCCC(CCCC(=O)N(CC)C1CCCCC1)N1Cc2cc(Oc3ccccc3)ccc2N=C1N (centres unmarked) [Compound 105] | <30 | – | – | – | % Inhibition (β-secretase (BACE) [1]; 10 μM compound): <30%; % Inhibition (FS) (β-secretase (BACE) [2]; 0.3 μM test compound): <30%; % Inhibition (FS) (β-secretase (BACE) [2]; 1 μM test compound): <30%; % Inhibition (FS) (β-secretase (BACE) [2]; 3 μM test compound): <30%
2 | CN(C(=O)c1cccc(CN2Cc3cc(-c4ccccc4Oc4ccccc4)ccc3N=C2N)c1)C1CCCCC1 [Compound 326] | – | 0.42 | – | – | inhibition at 0.3 µM (β-secretase (BACE) [2]; 0.3 μM test compound): < 30%; inhibition at 1 µM (β-secretase (BACE) [2]; 1 μM test compound): 35%; inhibition at 3 µM (β-secretase (BACE) [2]; 3 μM test compound): 79%
3 | NC1=Nc2ccc(Oc3ccccc3)cc2CN1Cc1cccc(CNC(=O)C23CC4CC(CC(C4)C2)C3)c1 [Compound 336] | <30 | – | <30 | <30 | –
4 | NC1=Nc2ccc(Oc3ccccc3)cc2CN1Cc1cccc(CNC(=O)C(c2ccccc2)c2ccccc2)c1 [Compound 337] | <30 | – | <30 | <30 | –
5 | CCCC(CCC)C(=O)NCc1cccc(CN2Cc3cc(Oc4ccccc4)ccc3N=C2N)c1 [Compound 338] | <30 | – | <30 | <30 | –
6 | CCCCC(CC)C(=O)NCc1cccc(CN2Cc3cc(Oc4ccccc4)ccc3N=C2N)c1 (centres unmarked) [Compound 339] | <30 | – | <30 | <30 | –
7 | CCCCC(CC)C(=O)NCC(c1ccccc1)N1Cc2cc(Oc3ccccc3)ccc2N=C1N (centres unmarked) [Compound 341] | 72 | – | <30 | <30 | –
8 | NC1=Nc2ccc(Oc3ccccc3)cc2CN1C(CNC(=O)C1CCCCC1)c1ccccc1 (centres unmarked) [Compound 342] | 119 | – | 50 | 93 | –
9 | CCCC(CNC(=O)C1CCCCC1)N1Cc2cc(Oc3ccccc3)ccc2N=C1N (centres unmarked) [Compound 343] | 118 | – | 81 | 101 | –
10 | NC1=Nc2ccc(Oc3ccccc3)cc2CN1C(CNC(=O)CCC1CCCC1)C1CCCCC1 (centres unmarked) [Compound 366] | 119 | – | 64 | 113 | –
11 | CC(C)(C)OC(=O)NCC(C1CCCCC1)N1Cc2cc(Oc3ccccc3)ccc2N=C1N (centres unmarked) [Compound 367] | 111 | – | <30 | 80 | –
12 | NC1=Nc2ccc(Oc3ccccc3)cc2CN1C(CNC(=O)C1(c2ccc(Cl)cc2)CCCC1)C1CCCCC1 (centres unmarked) [Compound 390] | – | – | <30 | 50 | –
13 | NC1=Nc2ccc(Oc3ccccc3)cc2CN1C(CCNC(=O)C1CCCC1)C1CCCCC1 (centres unmarked) [Compound 392] | 120 | – | 75 | 116 | –
14 | CC(C)C(CNC(=O)C12CC3CC(CC(C3)C1)C2)N1Cc2cc(Oc3ccccc3)ccc2N=C1N (centres unmarked) [Compound 562] | – | 0.026 | – | – | inhibition at 0.3 µM (β-secretase (BACE) [2]; 0.3 μM test compound): 106%; inhibition at 1 µM (β-secretase (BACE) [2]; 1 μM test compound): 118%; inhibition at 3 µM (β-secretase (BACE) [2]; 3 μM test compound): 128%
15 | NC1=Nc2ccc(-c3ccccc3)cc2CN1CCNC(=O)Cc1ccccc1 [Compound 595] | – | 0.33 | – | – | inhibition at 0.3 µM (β-secretase (BACE) [2]; 0.3 μM test compound): 32%; inhibition at 1 µM (β-secretase (BACE) [2]; 1 μM test compound): 70%; inhibition at 3 µM (β-secretase (BACE) [2]; 3 μM test compound): 104%
16 | CN(C(=O)CC[C@@H](C1CCCCC1)N1Cc2cc(Oc3ccccc3)ccc2N=C1N)C1CCC2(CC1)OCCO2 [Compound 710] | – | 0.3 | – | – | inhibition at 0.3 µM (β-secretase (BACE) [2]; 0.3 μM compound, FS1 substrate): < 30%; inhibition at 1 µM (β-secretase (BACE) [2]; 1 μM compound, FS1 substrate): 68%; inhibition at 3 µM (β-secretase (BACE) [2]; 3 μM compound, FS1 substrate): 126%
17 | CN(C(=O)CC[C@@H](C1CCCCC1)N1Cc2cc(Oc3ccccc3)ccc2N=C1N)C1CCC(=O)CC1 [Compound 711] | – | 0.45 | – | – | inhibition at 0.3 µM (β-secretase (BACE) [2]; 0.3 μM compound, FS1 substrate): < 30%; inhibition at 1 µM (β-secretase (BACE) [2]; 1 μM compound, FS1 substrate): 43%; inhibition at 3 µM (β-secretase (BACE) [2]; 3 μM compound, FS1 substrate): 113%
18 | CC(C)N1CCC(N(C)C(=O)CC[C@@H](C2CCCCC2)N2Cc3cc(Oc4ccccc4)ccc3N=C2N)CC1 [Compound 728] | – | 0.38 | – | – | inhibition at 0.3 µM (β-secretase (BACE) [2]; 0.3 μM compound, FS1 substrate): 43%; inhibition at 1 µM (β-secretase (BACE) [2]; 1 μM compound, FS1 substrate): 58%; inhibition at 3 µM (β-secretase (BACE) [2]; 3 μM compound, FS1 substrate): 97%
19 | COC(=O)[C@H]1CC[C@H](NC(=O)CC[C@@H](C2CCOCC2)N2Cc3cc(Oc4ccccc4)ccc3N=C2N)CC1 [Compound 747] | – | 0.088 | – | – | inhibition at 0.3 µM (β-secretase (BACE) [2]; 0.3 μM compound, FS1 substrate): 41%; inhibition at 1 µM (β-secretase (BACE) [2]; 1 μM compound, FS1 substrate): 74%; inhibition at 3 µM (β-secretase (BACE) [2]; 3 μM compound, FS1 substrate): 104%
